Values after ≈ are worked out from the molar mass of the structure shown.
Columns and labels:
[1] = Phosphate-buffered saline (PBS) solubility of compounds; type: physicochemical; conditions: aqueous buffer, thermodynamic from solid, PBS pH 7.5, 0.5 mg/mL, vortexed 90 min, filtered, LC-MS/MS, read-out: Solubility Range
Description: PBS solutions (pH 7.5) were prepared according to the following compositions and stored at 4° C. Test compounds were dissolved in PBS (pH 7.5) at 0.5 mg/mL and vortexed for 90 min. The PBS solution was sequentially filtered through a 0.45, 1.2, […] syringe filter. Concentration of test compounds were determined using LC-MS/MS with appropriate dilution of the samples.

[2] = molecular target: human wild type-CFTR (Homo sapiens, UniProt P13569); assay: Cell-based YFP assay; parameters: expressed in transfected cells; host or cells: CHO-K1 (Chinese hamster ovary); conditions: CHO-K1 cells expressing human wild type-CFTR and YFP-H148Q/I152L; forskolin 20 μM = 100% activity; read-out: Cell-based YFP Assay (EC50) Concentration Range
Procedure, shortened: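 CHO-K1 cells co-expressing human wild-type CFTR and YFP-H148Q/I152L halide sensor, grown 48 h at 37 °C, then in PBS. YFP quenching by I⁻ influx read at 37 °C after adding 140 mM I⁻ solution, sampled every 0.4 s for 14 s. Triplicates averaged; EC50 fitted.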

human wild type-CFTR, sequence (P13569 whole entry): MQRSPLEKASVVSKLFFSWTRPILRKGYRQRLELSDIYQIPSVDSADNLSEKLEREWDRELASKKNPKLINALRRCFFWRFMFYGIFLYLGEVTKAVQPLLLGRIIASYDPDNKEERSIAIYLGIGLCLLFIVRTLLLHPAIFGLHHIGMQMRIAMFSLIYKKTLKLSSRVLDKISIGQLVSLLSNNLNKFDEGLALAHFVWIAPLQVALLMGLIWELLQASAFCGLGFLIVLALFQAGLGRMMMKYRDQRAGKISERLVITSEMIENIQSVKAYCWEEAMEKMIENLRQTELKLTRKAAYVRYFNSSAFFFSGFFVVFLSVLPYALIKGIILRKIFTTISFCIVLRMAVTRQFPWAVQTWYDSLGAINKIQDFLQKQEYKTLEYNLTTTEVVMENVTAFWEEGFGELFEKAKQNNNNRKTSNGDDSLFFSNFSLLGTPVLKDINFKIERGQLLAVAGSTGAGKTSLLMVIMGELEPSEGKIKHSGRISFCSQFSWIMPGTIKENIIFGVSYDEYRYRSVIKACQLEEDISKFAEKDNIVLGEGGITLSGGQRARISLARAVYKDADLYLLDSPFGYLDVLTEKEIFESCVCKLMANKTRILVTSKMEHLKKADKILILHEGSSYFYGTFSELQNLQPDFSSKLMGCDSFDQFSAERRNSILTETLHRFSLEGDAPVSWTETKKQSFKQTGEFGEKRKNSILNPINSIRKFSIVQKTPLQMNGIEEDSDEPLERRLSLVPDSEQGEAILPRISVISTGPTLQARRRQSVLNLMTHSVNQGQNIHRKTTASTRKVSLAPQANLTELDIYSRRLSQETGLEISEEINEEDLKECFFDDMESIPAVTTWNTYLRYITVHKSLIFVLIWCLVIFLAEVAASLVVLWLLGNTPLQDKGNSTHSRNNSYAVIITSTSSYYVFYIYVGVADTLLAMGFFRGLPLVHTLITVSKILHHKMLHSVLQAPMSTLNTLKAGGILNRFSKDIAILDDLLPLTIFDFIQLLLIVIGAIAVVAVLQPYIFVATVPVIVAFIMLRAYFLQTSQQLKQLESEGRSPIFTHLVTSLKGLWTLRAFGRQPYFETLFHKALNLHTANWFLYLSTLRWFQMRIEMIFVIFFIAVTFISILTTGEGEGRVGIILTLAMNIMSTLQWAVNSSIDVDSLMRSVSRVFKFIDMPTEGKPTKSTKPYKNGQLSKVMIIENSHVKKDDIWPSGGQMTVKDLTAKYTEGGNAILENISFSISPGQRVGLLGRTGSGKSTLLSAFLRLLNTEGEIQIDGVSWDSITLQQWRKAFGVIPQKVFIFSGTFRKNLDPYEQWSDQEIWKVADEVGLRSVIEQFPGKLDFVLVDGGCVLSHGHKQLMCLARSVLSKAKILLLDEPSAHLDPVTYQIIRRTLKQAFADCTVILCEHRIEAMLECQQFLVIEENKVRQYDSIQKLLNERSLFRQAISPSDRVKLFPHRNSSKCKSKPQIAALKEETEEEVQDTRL

Structure (SMILES)	solubility at 90 min [1] [µg/mL]	EC50 [2] [nM]
COc1ccc(-c2ccnc3cc(C(=O)N[C@H]4CC[C@H](C(=O)O)CC4)nn23)cc1OC [Compound 21, (1R,4R)-4-(7-(3,4-dimethoxyphenyl)pyrazolo [1,5-a]pyrimidine-2-carboxamido)cyclohexane-1-carboxylic acid]	> 10	
COc1ccc(-c2ccnc3cc(C(=O)N[C@H]4CC[C@@H](C(=O)N5CCN(C(=O)OC(C)(C)C)CC5)CC4)nn23)cc1OC [Compound 73, tert-butyl 4-((1S,4S)-4-(7-(3,4-dimethoxyphenyl)pyrazolo [1,5-a]pyrimidine-2-carboxamido)cyclohexane-1-carbonyl)piperazine-1-carboxylate]	0.1 to 10 (≈ 0.169 to 16.9 µM)	200 to 2000
CCOC(=O)COc1ccc(NC(=O)c2cc3nccc(-c4ccc(OC)c(OC)c4)n3n2)cc1 [Compound 34, ethyl 2-(4-(7-(3,4-dimethoxyphenyl)pyrazolo [1,5-a]pyrimidine-2-carboxamido)phenoxy) acetate]	< 0.1	< 200
COC(=O)[C@H](CO)NC(=O)c1ccc(NC(=O)c2cc3nccc(-c4ccc(OC)c(OC)c4)n3n2)cc1 [Compound 43, methyl (4-(7-(3,4-dimethoxyphenyl)pyrazolo [1,5-a]pyrimidine-2-carboxamido)benzoyl)-L-serinate]	< 0.1	< 200
COc1ccc(-c2ccnc3cc(C(=O)Nc4ccc(C(=O)N[C@@H](CC(C)C)C(=O)O)cc4)nn23)cc1OC [Compound 85, (4-(7-(3,4-dimethoxyphenyl)pyrazolo[1,5-a]pyrimidine-2-carboxamido)benzoyl)-L-leucine]	> 10	200 to 2000
COc1ccc(-c2ccnc3cc(C(=O)N4CC[C@H](NC(=O)OC(C)(C)C)C4)nn23)cc1OC [Compound 145, tert-butyl (S)-(1-(7-(3,4-dimethoxyphenyl)pyrazolo [1,5-a]pyrimidine-2-carbonyl)pyrrolidine-3-yl)carbamate]	0.1 to 10 (≈ 0.214 to 21.4 µM)	200 to 2000
COc1ccc(-c2ccnc3cc(C(=O)Nc4ccc(C(N)=O)cc4)nn23)cc1OC [Compound 48, N-(4-carbamoylphenyl)-7-(3,4-dimethoxyphenyl)pyrazolo [1,5-a]pyrimidine-2-carboxamide]	< 0.1	< 200
COc1ccc(-c2ccnc3cc(C(=O)Nc4ccc(C(=O)N5CC6(CN(C)C6)C5)cc4)nn23)cc1OC [Compound 166, 7-(3,4-dimethoxyphenyl)-N-(4-(6-methyl-2,6-diazaspiro[3.3]heptane-2-carbonyl)phenyl)pyrazolo [1,5-a]pyrimidine-2-carboxamide]	< 0.1	200 to 2000
COC(=O)c1cccc(NC(=O)c2cc3nccc(-c4ccc(OC)c(OC)c4)n3n2)c1 [Compound 8, methyl 3-(7-(3,4-dimethoxyphenyl)pyrazolo [1,5-a]pyrimidine-2-carboxamido)benzoate]	< 0.1	
COc1ccc(-c2ccnc3cc(C(=O)N4CCC(NC(=O)OC(C)(C)C)CC4)nn23)cc1OC [Compound 100, tert-butyl (1-(7-(3,4-dimethoxyphenyl)pyrazolo[1,5-a]pyrimidine-2-carbonyl)piperidin-4-yl)carbamate]	0.1 to 10 (≈ 0.208 to 20.8 µM)	
COC(=O)C1CN(C(=O)c2ccc(NC(=O)c3cc4nccc(-c5ccc(OC)c(OC)c5)n4n3)cc2)C1 [Compound 65, methyl 1-(4-(7-(3,4-dimethoxyphenyl)pyrazolo[1,5-a]pyrimidine-2-carboxamido)benzoyl) azetidine-3-carboxylate]	< 0.1	< 200
COc1ccc(-c2ccnc3cc(C(=O)Nc4cccc(C(=O)N5CCOCC5)c4)nn23)cc1OC [Compound 55, 7-(3,4-dimethoxyphenyl)-N-(3-(morpholine-4-carbonyl)phenyl)pyrazolo [1,5-a]pyrimidine-2-carboxamide]	< 0.1	< 200
COc1ccc(-c2ccnc3cc(C(=O)N[C@H]4CC[C@@H](C(=O)OC)CC4)nn23)cc1OC [Compound 9, methyl (1S,4S)-4-(7-(3,4-dimethoxyphenyl)pyrazolo [1,5-a]pyrimidine-2-carboxamido)cyclohexane-1-carboxylate]	0.1 to 10 (≈ 0.228 to 22.8 µM)	
COc1ccc(-c2ccnc3cc(C(=O)N[C@H]4CC[C@@H](C(=O)O)CC4)nn23)cc1OC [Compound 19, (1S,4S)-4-(7-(3,4-dimethoxyphenyl)pyrazolo [1,5-a]pyrimidine-2-carboxamido)cyclohexane-1-carboxylic acid]	> 10	
COc1ccc(-c2ccnc3cc(C(=O)N4CCN(C(=O)COC(C)=O)CC4)nn23)cc1OC [Compound 83, 2-(4-(7-(3,4-dimethoxyphenyl)pyrazolo[1,5-a]pyrimidine-2-carbonyl)piperazin-1-yl)-2-oxoethyl acetate]		≥ 2000
COc1ccc(-c2ccnc3cc(C(=O)Nc4ccc(OC(=O)CNC(=O)OC(C)(C)C)cc4)nn23)cc1OC [Compound 227, 4-(7-(3,4-dimethoxyphenyl)pyrazolo[1,5-a]pyrimidine-2-carboxamido) phenyl(tert-butoxycarbonyl)glycinate]		< 200
COc1ccc(-c2ccnc3cc(C(=O)Nc4ccc(C(=O)N5CCN(C)CC5)cn4)nn23)cc1OC [Compound 124, 7-(3,4-dimethoxyphenyl)-N-(5-(4-methylpiperazine-1-carbonyl)pyridin-2-yl)pyrazolo[1,5-a] pyrimidine-2-carboxamide]		< 200
COC(=O)c1ccc(NC(=O)c2cc3nccc(-c4cccc(OC)c4)n3n2)cc1 [Compound 25, methyl 4-(7-(3-methoxyphenyl)pyrazolo [1,5-a]pyrimidine-2-carboxamido) benzoate]		≥ 2000
COc1ccc(-c2ccnc3cc(C(=O)N4CCc5ccc(C(=O)O)cc5C4)nn23)cc1OC [Compound 155, 2-(7-(3,4-dimethoxyphenyl)pyrazolo[1,5-a]pyrimidine-2-carbonyl)-1,2,3,4-tetrahydroisoquinoline-7-carboxylic acid]		≥ 2000
COc1ccc(-c2ccnc3cc(C(=O)Nc4ccc(C(=O)N[C@@H](C)C(=O)O)cc4)nn23)cc1OC [Compound 44, (4-(7-(3,4-dimethoxyphenyl)pyrazolo[1,5-a]pyrimidine-2-carboxamido)benzoyl)-L-alanine]		200 to 2000
CCOc1ccc(NC(=O)c2cc3nccc(-c4cccc(OC)c4)n3n2)cc1 [Compound 24, N-(4-ethoxyphenyl)-7-(3-methoxyphenyl)pyrazolo [1,5-a]pyrimidine-2-carboxamide]		≥ 2000

Further lines, results first:

solubility at 90 min [1] [µg/mL]	EC50 [2] [nM]	Structure (SMILES)
< 0.1	< 200	COc1ccc(-c2ccnc3cc(C(=O)Nc4ccc(N5CCN(C)CC5)cn4)nn23)cc1OC [Compound 204, 7-(3,4-dimethoxyphenyl)-N-(5-(4-methylpiperazin-1-yl)pyridin-2-yl)pyrazolo[1,5-a]pyrimidine-2-carboxamide]
< 0.1	< 200	COc1ccc(-c2ccnc3cc(C(=O)Nc4ccc(NC(=O)[C@H](C)NC(=O)OC(C)(C)C)cc4)nn23)cc1OC [Compound 281]
< 0.1	< 200	COc1ccc(-c2ccnc3cc(C(=O)Nc4ccc(C(=O)N5CCOCC5)c(O)c4)nn23)cc1OC [Compound 169, 7-(3,4-dimethoxyphenyl)-N-(3-hydroxy-4-(morpholine-4-carbonyl)phenyl)pyrazolo[1,5-a]pyrimidine-2-carboxamide]
0.1 to 10 (≈ 0.194 to 19.4 µM)	< 200	COc1ccc(-c2ccnc3cc(C(=O)Nc4ccc(C(=O)N5CCN(C)CC5)c(O)c4)nn23)cc1OC [Compound 170, 7-(3,4-dimethoxyphenyl)-N-(3-hydroxy-4-(4-methylpiperazine-1-carbonyl)phenyl)pyrazolo [1,5-a]pyrimidine-2-carboxamide]
< 0.1	200 to 2000	COc1ccc(-c2ccnc3cc(C(=O)Nc4ccc(C(=O)O)c(O)c4)nn23)cc1OC [Compound 168, 4-(7-(3,4-dimethoxyphenyl)pyrazolo[1,5-a]pyrimidine-2-carboxamido)-2-hydroxybenzoic acid]
	≥ 2000	COc1ccc(-c2ccnc3cc(C(=O)Nc4ccc(C(=O)OCCCN5CCCC5)cc4)nn23)cc1OC [Compound 226, 3-(pyrrolidin-1-yl)propyl 4-(7-(3,4-dimethoxyphenyl)pyrazolo [1,5-a]pyrimidine-2-carboxamido)benzoate]
	200 to 2000	COc1ccc(-c2ccnc3cc(C(=O)N4CCN(C(=O)c5ccccc5OC)[C@@H](C)C4)nn23)cc1OC [Compound 317, (S)-(7-(3,4-dimethoxyphenyl)pyrazolo[1,5-a]pyrimidin-2-yl)(4-(2-methoxybenzoyl)-3-methylpiperazin-1-yl) methanone]
	≥ 2000	COc1ccc(-c2ccnc3cc(C(=O)Nc4ccc(N5CCOCC5)cn4)nn23)cc1[N+](=O)[O-] [Compound 294, 7-(4-methoxy-3-nitrophenyl)-N-(5-morpholinopyridin-2-yl) pyrazolo[1,5-a] pyrimidine-2-carboxamide]
	200 to 2000	COc1ccc(-c2ccnc3cc(C(=O)N4C[C@H](C)N[C@@H](C)C4)nn23)cc1OC [Compound 359, (7-(3,4-dimethoxyphenyl)pyrazolo[1,5-a]pyrimidin-2-yl) ((3S,5S)-3,5-dimethylpiperazin-1-yl)methanone]

Reference: patent publication US20240199623A1 (ILDONG PHARMACEUTICAL CO., LTD., priority 2020, published 2024)
